In US10175256B2, “Compositions and methods utilizing lysophosphatidylcholine scaffolds” (National University Of Singapore, priority 2013, dated 2019):

Columns and labels:
[1] = biological target: T1, mouse Mfsd2a (Mus musculus, UniProt Q9DA75); experiment: TLC analysis of phospholipids (bio-incorporation of LPC into PC); assay type: cell-based
T1 construct: expressed in transfected cells; host or cells: HEK293
T1 sequence (Q9DA75 1-534): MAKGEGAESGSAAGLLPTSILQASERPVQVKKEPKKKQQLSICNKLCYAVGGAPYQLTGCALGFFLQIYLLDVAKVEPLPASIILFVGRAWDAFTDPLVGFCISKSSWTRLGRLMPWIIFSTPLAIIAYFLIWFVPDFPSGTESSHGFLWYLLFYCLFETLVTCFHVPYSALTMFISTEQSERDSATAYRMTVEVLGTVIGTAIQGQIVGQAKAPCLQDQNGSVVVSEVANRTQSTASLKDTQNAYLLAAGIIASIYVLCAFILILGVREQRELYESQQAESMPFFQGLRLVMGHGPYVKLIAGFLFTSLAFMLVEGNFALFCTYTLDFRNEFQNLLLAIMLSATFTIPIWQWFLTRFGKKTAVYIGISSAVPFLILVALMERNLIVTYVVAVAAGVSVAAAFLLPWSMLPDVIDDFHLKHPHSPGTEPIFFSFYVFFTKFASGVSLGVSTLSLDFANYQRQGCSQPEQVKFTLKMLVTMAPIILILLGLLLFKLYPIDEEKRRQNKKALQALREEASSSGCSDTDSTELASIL
Protocol: HEK293 cells overexpressing with pcDNA3.1Mfsd2a (WT), pcDNA3.1Mfsd2aD92A (D92A), pcDNA3.1Mfsd2aD96A, or pcDNA3.1 (mock) plasmids or human Mfsd2a (in Sport6 plasmid) were washed once with serum-free DMEM medium before incubation with 50 μM radiolabeled LPC [^14C]oleate, LPC [^14C]DHA or with 50 μM TopFluor-LPC and NBD-LPC. Lipids were extracted twice with HIP buffer for 30 mins. Lipids were dried with nitrogen stream and reconstituted in chloroform and spotted on TLC plates (Milipore). Solvent for phospholipid separation was chloroform/methanol/ammonia solution (25%) (50:25:6, per volume). TLC plates of radiolabeled phospholipids were dried for 30 mins and exposed overnight to Phosphorscreens and scanned with Typhoon FLA 9000 scanner (Agilent). TLC plates of fluorescent phospholipids were scanned with Typhoon FLA 9000 scanner and quantified using Imagequant software.

[2] = biological target: T1, mouse Mfsd2a; experiment: In vitro transport (uptake) of radiolabeled and fluorescent LPCs in HEK293 cells overexpressing Mfsd2a; assay type: cell-based
Protocol: Uptake assays of radiolabeled LPCs or fluorescent LPCs were tested using HEK293 cells overexpressing Mfsd2a and mutants constructs. Briefly, HEK293 cells at 90-95% confluency were transfected using LIPOFECTAMINE 2000 (Invitrogen) with pcDNA3.1Mfsd2a (WT), pcDNA3.1Mfsd2aD92A (D92A), pcDNA3.1Mfsd2aD96A (D96A), or pcDNA3.1 (mock) plasmids. Uptake assays were performed after 24 hours of transfections. Prior to ligand incubation, HEK293 transfected cells were washed with serum-free DMEM before assays. For concentration and time dependent assays, radiolabeled LPCs were diluted in pre-warmed DMEM media. For sodium dependent assay, radiolabeled LPCs were diluted in transport buffer (5 mM KCl, 10 mM Hepes, pH 7.4) with 150 mM NaCl or 150 mM choline chloride. For sodium concentration dependent assays, any reductions in the concentration of NaCl were replaced by choline chloride in order to maintain a constant cation molarity of 150 mM. All assays were performed in 12 well-plates with triplicates and at 37° C.

[3] = biological target: T2, Mfsd2a (Mus musculus, UniProt Q9DA75); experiment: In vivo transport of radiolabeled, fluorescent LPCs and unesterified DHA in Mfsd2a KO and wild-type mice; parameters: from tissue; host or cells: living mice; brain (blood-brain barrier endothelium), liver, heart; fetal brain
T2 sequence (Q9DA75 1-534): T1 sequence (Q9DA75 1-534)
Protocol: Male and female mice of age of 6-8 weeks were IV injected with 75 μl of 20 mM radiolabeled LPC-[…], 100 μl of 10 mM LPC-[^14C]DHA/BSA complex or 82 μl of 12.2 mM [^14C]DHA/BSA complex in a total volume of 150 μl of phosphate-buffered saline. At 2 hours post injection, mice were anesthetized and perfused for 5 mins with PBS containing 0.5% BSA in order to remove blood and lipid tracer bound to the brain vasculature. Tissues were harvested for lipid extraction. For lipid extraction, tissues were weighed and similar amounts of tissues were homogenized in chloroform/methanol. Lipids from the organic phase were mixed with scintillant and scintillation counted. Similar experiments were also performed with an injection of 300 μg NBD-LPC/BSA or 300 μg TopFluor-LPC/BSA complex per mouse. In this experiment, mice were perfused for 5 mins with PBS followed 15 mins perfusion with 4% paraformaldehyde (PFA) for tissue fixation. Brain sections of WT and KO with a thickness of 40 μm were prepared and scanned using green fluorescence mode in Typhoon FLA 9000 scanner (Agilent). NBD-LPC accumulation was expressed as fluorescence of each section per its area. Dietary DHA transport from mother to fetus was also measured using [^14C]DHA/BSA complex. Pregnant females at e18.5 was gavaged with bolus of [^14C]DHA/BSA complex (200 μl of 10 mM [^14C]DHA/BSA/mouse). Brain of fetuses were collected 20 hours post-gavage and weighed. Lipid extraction and radioactivity were performed as described above.

comparison of Mfsd2a-mediated uptake (capacity to transport) ([2]; HEK293 cells expressing Mfsd2a)	uptake of radiolabeled LPC by cells expressing Mfsd2a relative to control cells ([2]; HEK293 cells, wild-type Mfsd2a vs mock, LPC/BSA, 30 mins)	reduction in brain uptake in Mfsd2a KO mice compared with wild-type ([3]; i.v. injection, 2 hrs post-injection)	uptake in peripheral tissues of KO mice compared with wild-type ([3]; i.v. injection, liver and heart, 2 hrs)	brain uptake, unesterified DHA compared with LPC-DHA ([3]; wild-type brain, same amount injected i.v., 2 hrs)	SMILES	effect of cold LPC on transport of NBD-LPC ([1]; 10-fold molar excess of competitor)	conversion of transported LPCs into PCs ([1]; HEK293 cells expressing Mfsd2a, radiolabeled LPC, TLC)
–	–	–	–	–	CCCCCCCCCCCCCCCCCC(=O)OC[C@@H](O)COP(=O)([O-])OCC[N+](C)(C)C [LPC-18:0]	suppressed	–
highest capacity	enhanced concentration-dependent uptake	more than 90%	not decreased	far greater	CCC=CCC=CCC=CCC=CCC=CCC=CCCC(=O)OC[C@@H](O)COP(=O)([O-])OCC[N+](C)(C)C [LPC-[^14C]DHA, 1-docosahexaenoyl 2-lysophosphocholine]	–	rapid conversion of transported LPCs into PCs
